Tests used:
[1] = system: primary OPCs purified by magnetic cell sorting (MACS) from neonatal cortices; experiment: Primary OPC cultures purified by MACS, morphological complexity of OLs; format: cell-based, mice; settings: OPCs treated for two days; compared to vehicle; FIG. 2B
Protocol: Brains were collected from PLPGFP and P4 Swiss mice […] and washed 3 times in PBS 1× (Invitrogen) with 1% of penicillin/streptomycin (Sigma). Cortex and corpus callosum were dissected and dissociated using neural tissue dissociation kit (T) (Miltenyi biotec) and with dissociator (gentleMACS Octo Dissociator, Miltenyi Biotec). OPC magnetic cell sorting was performed using anti-PDGFRα-coupled-beads (CD140a-PDGFRα MicroBead Kit, Miltenyi biotec) and MultiMACS Cell24 Separator Plus (Miltenyi biotec). Cells were collected in PBS and amplified for 2 days in a proliferating medium (with growth factors IGF, EGF, FGF, and PDGFα). Then, 40.000 cells were plated in 24 well plates adherent on coverslips, beforehand coated with poly-ornithine (Merck) diluted in 4 volumes of H2O and washed 3 times. Successively, for 2 days of proliferation and differentiation, medium was added with drugs at 250 nM, 500 nM and 750 nM, and their respective vehicles (DMSO, PBS). Cells were fixed in 4% PBS-paraformaldehyde (thermo fisher) for 10 minutes and washed 3 times in PBS-1×.
For coated-coverslip, blocking was performed in a moist chamber for 30 mn at room temperature (RT) in the blocking buffer (0.05% Triton X-100/10% normal goat serum/PBS). Then, coverslip were incubated for 30 mn with the following primary antibodies at RT. Rat anti-PDGFRα (1:250, BD Biosciences); Mouse anti-CNPase (mlgG1, 1:250; Millipore); Rabbit anti-Btub (1:1000; BABCO); Chicken anti-GFAP (1:500, Avelabs), Mouse anti-MBP (mlgG1, 1:150; Abcam); Rabbit anti-Sox10 (1:1000; Proteintech). Following 3 washing in 0.05% Triton X-100/PBS, coverslips were incubated 30 min at RT in dark with appropriate secondary antibodies conjugated with Alexa Fluor 488, 594 and 647 (1:1000; Molecular Probes or Thermo Fisher) and Dapi (1:5000 from working solution at 5 mg/ml; Life Technologies; D1306). Coverslips were washed 3 times in 0.05% Triton X-100/PBS and mounted with Fluoromount-G (SouthernBiotech).
To evaluate cell specific contribution of the drugs directly in OL differentiation and maturation, we used primary OPCs purified by magnetic cell sorting (MACS) from neonatal cortices (P4).

[2] = system: cerebellar slices explants; experiment: Ex vivo cerebellar organotypic explant culture, differentiation and myelination index; format: cell-based, mice; settings: 750 nM, three days (7-10 DIV); for differentiation index (CC1+/Sox10+ OLs number): compared to negative controls, FIG. 3B
Protocol: We prepared cerebellar organotypic cultures from newborn (P0) mice. Cerebellar parasagittal slices (350 μm thick) were cut on a McIlwain tissue chopper and transferred onto 30 mm diameter Millipore culture inserts with […] (Millicell, Millipore). Slices were maintained in incubators at 37° C., under a humidified atmosphere containing 5% CO2 in six-well-plates containing 1 mL of slice culture media. This medium includes basal medium eagle (Invitrogen), 25% complete HBSS, 27 mM D-glucose, 100 U/mL penicillin/streptomycin, 1 mM glutamine (Sigma) and 5% horse serum (New Zealand origin, heat inactivated; Invitrogen). Medium was renewed every 2 days until 7 DIV, reaching the appropriate culture periods to study OPC differentiation and myelination. […] Slices were collected and fixed for 1 h at RT in PBS-4% paraformaldehyde, washed 3 times in PBS, and incubated 20 min at 4° C. in Clark's solution (95% ethanol/5% acetic acid), then washed 3 times in PBS 1×.
For ex-vivo cerebellar slices, slices were incubated 20 min at 4° C. in Clark's solution (95% ethanol/5% acetic acid), then washed 3 times in PBS 1×. Then, sections were incubated for 1 hour in a blocking buffer (0.2% Triton X-100/4% bovine serum albumin/4% donkey serum/PBS). Slices were incubated for 2 hours with the following primary antibodies at RT: Goat anti-Sox10 (1:100, R&D Systems); Rabbit anti-Calbindin (1:1000; Swant); Rat anti-MBP (1:200; Abcam); Mouse anti-CC1 (IgG2b; 1:100, Calbiochem). Then slices were washed 3 times in PBS/0.1% Triton X-100 and incubated in blocking buffer (dark, RT) for 2 hours with appropriate secondary antibodies conjugated with Alexa Fluor 488, 594 and 647 (1:1000; Molecular Probes or Thermo Fisher) and Dapi (1:5000 from working solution at 5 mg/ml; Life Technologies; D1306). Finally, slices were washed 3 times in PBS/0.1% Triton X-100 after incubation and mounted in Fluoromount-G (SouthernBiotech).
Then, we firstly performed a simpler and faster experimental model using cerebellar slices explants to identify the best drugs having pro-oligodendrogenenic and pro-myelinating activities in this ex vivo model, to be used in the in vivo analyses. Indeed, this model allowed us to better assess later aspects of OL maturation, myelination, and cytotoxicity in a richer cellular system, also containing immune cells (microglia/macrophages) that are known to influence oligodendrogenesis and (re) myelination. In this model, the start of myelination takes place after 7 days in culture (FIG. 3A). […] We then analyzed the effect in terms of OL numbers (CC1+/Sox10+ cells) and myelination (MBP labeling on CaBP+ Purkinje cell axons), by immunodetection of all four markers in the same sections. We calculated the differentiation index as the ratio of Sox10+ cells being CC1+, and the myelination index as the ratio CaBP+ axons being MBP+. […] On the one hand, we used the adult focal de/remyelination induced by intracerebral injection of […] (LPC) mimicking de/remyelination of MS, and on the other hand, the neonatal chronic hypoxia model, mimicking PTB hypomyelination.

[3] = system: neural progenitor cells (NPCs) obtained from the neonatal SVZ; experiment: Neonatal neural progenitor cell (neurosphere-derived) differentiation cultures, immunodetection of neural lineages; format: cell-based, mice; settings: for neurogenesis (neuronal β-III-tubulin+ cells): 750 nM, compared to vehicle, FIG. 1D; for increase in iOLs (Sox10high cells): fold-change between drug treatment and vehicle, FIG. 1G
Protocol: NSC medium was prepared using up to 50 ml DMEM/F12 (Gibco), containing 666 μl glucose at 45% (Sigma), 0.5 ml penicillin/streptomycin (Sigma), 250 μl HEPES buffer at 1M (Gibco), 500 μl mL N2 supplement (Gibco), 1 mL B27 supplement (Gibco) and with growth factors Insulin 20 μg/ml (Sigma), EGF at 20 ng/ml (Peprotech), FGF 10 ng/ml (Peprotech). Brains were collected from Swiss mice at P0 and washed 3 times in PBS 1× (Invitrogen) with 1% of penicillin/streptomycin (Sigma). SVZ was dissected, transferred in fresh NSC medium and dissociated with pipette. Cells were amplified in a 25 ml flask (1 million of cells for 5 mL of medium), and maintained in a humidified atmosphere at 37° C. and 5% of CO2. Two-three days after, cells have grown as floating neurospheres and were collected by centrifugation at 500 g for 5 mn, dissociated before adding proliferating NSC medium. After 2 passages, 30.000 cells were plated in 24 well plates adherent on coverslips, beforehand coated with poly-ornithine (Merck) diluted in 4 volumes of H2O and washed 3 times. Drugs were added at different ranges of concentration (250 nM, 500 nM and 750 nM) and their respective vehicles (DMSO, or PBS). Medium (including drugs or vehicle) was changed each 2 days. After 4 days with proliferation factors, a differentiation medium without growth factors was added (with drugs or vehicle) for two days. Cells were washed once in PBS, fixed in 4% PBS-paraformaldehyde (thermofischer) for 10 minutes, and washed 3 times in PBS-1×.
To do so, we first used a culture of mix neural progenitor cells (NPCs) obtained from the neonatal SVZ (postnatal day 1, P1). […] We supplemented the drugs in both the proliferation and differentiation medium to analyze both their effect in neural cell type specification into the different neural lineages, and assess their ability to foster OPC differentiation. […]

[4] = system: focal demyelination in the corpus callosum of adult mice; experiment: Lysolecithin (LPC) induced focal de/remyelination model in adult mice, oral administration in drinking water; format: in vivo; settings: 7 dpl, oral daily
Protocol: We weighted and anesthetized 4 months old RjOrl: SWISS mice (Janvier) with isoflurane (induced at 3%, and maintained at 1.2-1.6%). We induced focal demyelinating lesions by injecting 0.5 μl of a solution of 1% lysolecithin (LPC, Sigma in 0.9% NaCl solution) into the corpus callosum. To do so, a glass-capillary connected to a 10 μl Hamilton syringe was fixed and oriented through stereotaxic apparatus (coordinates: 1 mm lateral, 1.3 mm rostral to Bregma, 1.7 mm deep to brain surface). Animals were left to recover for a few hours in a warm chamber. […] Mice was perfused at 2% cold paraformaldehyde (thermos fisher) at 7 DPI.
For in-vivo cryosections (14-μm thick) of lesions, immunohistochemistry was performed after 30 mn drying at RT in a moist chamber. For myelin staining, ethanol treatment (100%) was performed for 10 mn at RT. Briefly, sections were permeabilized and blocked in a blocking buffer for 1 h (0.05% Triton X-100/10% normal goat serum/PBS). Then, cryosections were incubated overnight with the following primary antibodies at 4° C.: Mouse anti-APC (CC1 IgG2B; 1:100, calbiochem); Rabbit anti-Olig2 (1:500; Millipore); Mouse anti-Olig1 (IgG1; 1:500; NeuroMab); Rat anti-CD68 (1:500, AbD SEROTEC/BioRad); Rabbit anti-IBA1 (1:500, Wako Fujifilm); Mouse anti-MOOG (mlgG1, 1:20; Hybridoma). Then sections were washed 3 times in 0.05% Triton X-100/PBS and incubated 1 hour at RT with appropriate secondary antibodies conjugated with Alexa Fluor 488, 594 and 647 (1:1000; Molecular Probes or Thermo Fisher) and Dapi (1:5000 from working solution at 5 mg/ml; Life Technologies; D1306). Sections were washed 3 times in 0.05% Triton X-100/PBS and mounted with Fluoromount-G (SouthernBiotech).
We analyzed the lesions at 7 days post-lesion (7 dpl), when newly formed OLs have started to remyelinate the lesion in this model. The lesion area was identified by immunodetection of the high cellular density with DAPI staining, reduction of myelin with myelin oligodendrocyte glycoprotein (MOG), and abundance of microglia/macrophages with Iba1 and Cd68. We determined the effect of the drugs to promote oligodendrogenesis at the lesion site by combinatory immunodetection of Olig2, CC1 and Olig1, allowing to distinguish OPCs (Olig2^high/CC1^−/Olig1^nuclear-cyto cells) and three stages in OL differentiation: iOL1 (Olig2^high/CC1^high/Olig1^− cells), iOL2 (Olig2^high/CC1^high/Olig1^high-cyto cells), and mOL (Olig2^low/CC1^low/Olig1^low cells). […] Given the increase in OL differentiation by the drugs administration, without diminishing the pool of OPCs in the lesion area, we assessed for the proliferative status of OPCs, using Mcm2 and Ki67 proliferative markers, finding that both drugs promote a ˜2-fold increase in the density of proliferative OPCs (FIG. 4D) and in the proportion of proliferative OPCs (FIG. 4E).
To investigate the possible anti-inflammatory and pro-regenerative activity of these drugs, we performed staining for microglia/macrophages (Iba1+ cells), their active phagocytic status (Cd68+ cells), together with myelin (MOG) and cell density (DAPI) to identify the lesion area.

Cc1cc2c(cc1S(N)(=O)=O)S(=O)(=O)CCC2 [Sm1, Meticrane]
morphological complexity of OLs (PLP+ cells) [1]: strongly increased | differentiation index (CC1+/Sox10+ OLs number) [2]: increased differentiation index

CC(N)CCCC(C)(C)O (stereo not shown) [Sm2, Heptaminol]
morphological complexity of OLs (PLP+ cells) [1]: strongly increased | differentiation index (CC1+/Sox10+ OLs number) [2]: increased differentiation index | myelination process (MBP+/CaBP+), myelination index ([2]; compared to vehicle, FIG. 3C): robust increase

Nc1nc(=O)c2c([nH]1)NCC(CNc1ccc(C(=O)N[C@@H](CCC(=O)O)C(=O)O)cc1)N2C=O.[Ca+2] (stereo partly shown) [Sm11, Calcium folinate]
neurogenesis (neuronal β-III-tubulin+ cells) [3]: positive effect | morphological complexity of OLs (PLP+ cells) [1]: strongly increased | number of oligodendroglial cells in the remyelinating area (Olig2+ cells) ([4]; sm5 at 5 μg per g, control 942.5±265.7, FIG. 4B): 1558±331 Olig2+ cells per mm^2 | density of OPCs (Olig2high/CC1−/Olig1nuclear-cyto cells) in the lesion area ([4]; FIG. 4C): did not change | pro-regenerative microglia (Arg1+ cells) ([4]; FIG. 4I): corresponding increase | actively phagocytic microglia/macrophages (Cd68+ cells) ([4]; control 22.45%, FIG. 4H): 12.13%±5.14 | surface occupied by Iba1+ microglia/macrophages in the lesion area ([4]; control 33.64%, FIG. 4G): 27.28%±4.16 | increase of each stage of OL differentiation (iOL1, iOL2 & mOL) ([4]; versus control): ~2 fold | increase in the density of proliferative OPCs (Mcm2, Ki67 markers) ([4]; versus control, FIG. 4D): ~2 fold | increase in the proportion of proliferative OPCs ([4]; versus control, FIG. 4E): ~2 fold

S=C(NC1CCCCC1)N1CCC(c2cnc[nH]2)CC1 [Sm9, Thioperamide]
neurogenesis (neuronal β-III-tubulin+ cells) [3]: positive effect

OC(CCN1CCCCC1)(c1ccccc1)C1CCCCC1 (stereo not shown) [Sm10, Trihexyphenidyl]
increase in iOLs (Sox10high cells) [3]: increased tendency not reaching statistical significance

C#C[C@]1(O)CC[C@H]2[C@@H]3CCC4=CC(=O)CC[C@@H]4[C@H]3CC[C@@]21CC [Sm7, Levonorgestrel]
increase in iOLs (Sox10high cells) [3]: increased tendency not reaching statistical significance

C[C@@H]1C(=O)O[C@H]2C[C@@]34[C@H]5C[C@@H](C(C)(C)C)[C@]36[C@@H](OC(=O)[C@@H]6O)O[C@@]4(C(=O)O5)[C@]21O [Sm6, Ginkgolide A]
morphological complexity of OLs (PLP+ cells) [1]: strongly increased

— patent US20250195523A1, “ORGANIC MOLECULES FOR TREATING MYELIN PATHOLOGIES” (ICM (INSTITUT DU CERVEAU ET DE LA MOELLE ÉPINIÈRE), priority 2022, published 2025)
